The target in the assay is T1, STM3175 (YgiV) (Salmonella enterica, UniProt Q8ZM00).
T1 construct: full-length STM3175 (288 aa)
In words: tryptophan fluorescence quenching titration. It counts as binding. From the text: tryptophan fluorescence quenching titration on STM3175 (YgiV) | Fluorescence quenching of STM3175 plotted as a function of increasing azahistidine albicidin concentration.

T1 sequence (Q8ZM00 whole entry): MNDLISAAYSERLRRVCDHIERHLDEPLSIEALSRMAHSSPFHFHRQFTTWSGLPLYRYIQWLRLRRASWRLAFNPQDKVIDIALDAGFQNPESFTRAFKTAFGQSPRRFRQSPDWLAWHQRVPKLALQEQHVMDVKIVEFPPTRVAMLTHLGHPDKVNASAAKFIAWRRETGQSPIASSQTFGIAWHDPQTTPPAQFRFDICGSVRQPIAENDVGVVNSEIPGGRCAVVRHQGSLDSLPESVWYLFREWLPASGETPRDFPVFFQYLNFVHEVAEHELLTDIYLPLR

A word on the Kd: it is the free concentration of one partner at which half of the binding sites on the other are occupied at equilibrium, for simple one-to-one binding. The low end stands for a tighter complex, the high end for a looser complex. Compound `COc1c(NC(=O)c2ccc(NC(=O)c3ccc(NC(=O)[C@H](Cc4c[nH]nn4)NC(=O)c4ccc(NC(=O)/C(C)=C/c5ccc(O)cc5)cc4)cc3)c(OC)c2O)ccc(C(=O)O)c1O` [azahistidine albicidin] gave an equilibrium dissociation constant (Kd) of 170 ± 10 nM.

(Values after article PMC10414762, “Gene amplifications cause high-level resistance against albicidin in gram-negative bacteria” (PLOS Biology, 2023).)
